Laboratory results: ChEMBL document CHEMBL1139604 (Bioorg Med Chem Lett, 2005)

Legend:
[1] = Inhibition of bovine farnesyl transferase; parameters: species or system Bos taurus
[2] = target: T1, Protein farnesyltransferase (Mus musculus) (UniProt Q61239+Q8K2I1); assay: Percent inhibition of Ras processing in H-ras transformed NIH3T3 cells at 100 nM; type: functional, cell-based
[3] = target: T2, Geranylgeranyl transferase type I (Bos taurus, UniProt P29702+Q5EAD5); assay: Inhibition of bovine geranylgeranyl transferase type I; type: protein-complex assay
[4] = target: T3, Protein farnesyltransferase (Mus musculus, UniProt Q61239+Q8K2I1); assay: Inhibition of Ras processing in H-ras transformed NIH3T3 cells in presence of Lonafarnib; type: functional, cell-based
[5] = target: T2, Geranylgeranyl transferase type I; assay: Inhibition of bovine geranylgeranyl transferase type I in presence of Lonafarnib; type: protein-complex assay
[6] = Inhibition of bovine farnesyl transferase in presence of Lonafarnib; parameters: species or system Bos taurus
[7] = target: T3, Protein farnesyltransferase; assay: Inhibition of Ras processing in H-ras transformed NIH3T3 cells; type: functional, cell-based
[8] = target: T1, Protein farnesyltransferase (Mus musculus); assay: Percent inhibition of Ras processing in H-ras transformed NIH3T3 cells at 1000 nM; type: functional, cell-based

| Compound | IC50 [1] [nM] | inhibition [2] [%] | IC50 [3] [nM] | further results |
| --- | --- | --- | --- | --- |
| CCOc1cccc(-n2c(=O)n(C)c3ccc(C(O)(c4ccc(C#N)cc4)c4cncn4C)cc32)c1 (stereo not drawn) | 0.5 | 47 | > 10000 |  |
| Cn1cncc1C(O)(c1ccc(Cl)cc1)c1ccc2c(c1)n(Cc1cccc(Cl)c1)c(=O)n2C (stereo not drawn) | 150 |  |  |  |
| Cn1cncc1C(O)(c1ccc(C#N)cc1)c1ccc2c(c1)n(-c1ccc3c(c1)OCO3)c(=O)n2C (stereo not drawn) | 8 | 0 | > 10000 |  |
| Cn1cncc1C(O)(c1ccc(I)cc1)c1ccc2c(c1)n(-c1cccc(Cl)c1)c(=O)n2C (stereo not drawn) | 24 | 2 | 1200 |  |
| Cn1cncc1C(O)(c1ccc(I)cc1)c1ccc2c(c1)n(Cc1cccc(Cl)c1)c(=O)n2C (stereo not drawn) | 71 |  |  |  |
| Cn1cncc1[C@@](N)(c1ccc(Cl)cc1)c1ccc2c(c1)c(-c1cccc(Cl)c1)cc(=O)n2C [TIPIFARNIB] |  |  |  | EC50 [4]: 100 nM; IC50 [5]: > 10000 nM; IC50 [6]: 8.3 nM |
| Cn1cncc1C(O)(c1ccc(Cl)cc1)c1ccc2c(c1)n(C)c(=O)n2-c1cccc(Cl)c1 (stereo not drawn) | 1100 |  |  |  |
| Cn1cncc1C(O)(c1ccc(Cl)cc1)c1ccc2c(c1)n(-c1ccc3ccccc3c1)c(=O)n2C (stereo not drawn) | 21 | 0 | 2900 |  |
| Cn1cncc1C(O)(c1ccccc1)c1ccc2ccn(-c3cccc4ccccc34)c2c1 (stereo not drawn) | 200 |  |  |  |
| CCOc1cccc(-n2c(=O)n(C)c3ccc(C(O)(c4ccc(Cl)cc4)c4cncn4C)cc32)c1 (stereo not drawn) | 6.6 |  | 7500 | EC50 [7]: 22 nM |
| COc1cccc(-n2c(=O)n(C)c3ccc(C(O)(c4ccc(Cl)cc4)c4cncn4C)cc32)c1 (stereo not drawn) | 6.7 | 24 | > 10000 |  |
| Cn1cncc1C(O)(c1ccc(Cl)cc1)c1ccc2c(c1)n(-c1cccc(Cl)c1)c(=O)n2C (stereo not drawn) | 16 | 26 |  |  |
| COc1cccc(-n2c(=O)n(C)c3ccc(C(O)(c4ccc(C#N)cc4)c4cncn4C)cc32)c1 (stereo not drawn) | 5.1 |  | > 10000 |  |
| Cn1cncc1C(O)(c1ccc(C#N)cc1)c1ccc2c(c1)n(-c1cccc(Cl)c1)c(=O)n2C (stereo not drawn) | 1.4 |  | 1800 | EC50 [7]: 18.1 nM |
| Cn1cncc1C(O)(c1ccccc1)c1ccc2ccn(-c3cccc(Cl)c3)c2c1 (stereo not drawn) | 36 |  |  | inhibition [8]: 13% |
| Cn1cncc1C(O)(c1ccc(Cl)cc1)c1ccc2c(c1)n(-c1ccc3c(c1)OCO3)c(=O)n2C (stereo not drawn) | 150 |  |  |  |
| Cn1cncc1C(O)(c1ccc(C#N)cc1)c1ccc2c(c1)n(Cc1cccc(Cl)c1)c(=O)n2C (stereo not drawn) | 5.2 | 51 | 5600 |  |
